test system: HCV type 1b replicon in Huh-7 luc/neo (Huh-Luc) cells; experiment: HCV replicon assay (Huh-Luc, luciferase readout); assay type: cell-based; settings: Hepatitis C virus, Huh-7, 72 h, three days incubation, luciferase activity, read-out: HCV-REP-HUH-LUC_EC50
Text: The compounds of formula (I) were examined for inhibitory activity in the HCV replicon. This cellular assay is based on a bicistronic expression construct, as described by Lohmann et al. (1999) Science vol. 285 pp. 110-113 with modifications described by Krieger et al. (2001) Journal of Virology 75: 4614-4624, in a multi-target screening strategy.
In essence, the method was as follows:
The assay utilized the stably transfected cell line Huh-7 luc/neo (hereafter referred to as Huh-Luc). This cell line harbors an RNA encoding a bicistronic expression construct comprising the wild type NS3-NS5B regions of HCV type 1b translated from an Internal Ribosome Entry Site (IRES) from encephalomyocarditis virus (EMCV), preceded by a reporter portion (FfL-luciferase), and a selectable marker portion (neoR, neomycine phosphotransferase). The construct is flanked by 5′ and 3′ NTRs (non-translated regions) from HCV type 1b. Continued culture of the replicon cells in the presence of G418 (neoR) is dependent on the replication of the HCV RNA. The stably transfected replicon cells that express HCV RNA, which replicates autonomously and to high levels, encoding inter alia luciferase, were used for screening the antiviral compounds.
The replicon cells were plated in 384 well plates in the presence of the test and control compounds which were added in various concentrations. Following an incubation of three days, HCV replication was measured by assaying luciferase activity (using standard luciferase assay substrates and reagents and a Perkin Elmer ViewLux™ ultraHTS microplate imager). Replicon cells in the control cultures have high luciferase expression in the absence of any inhibitor. The inhibitory activity of the compound on luciferase activity was monitored on the Huh-Luc cells, enabling a dose-response curve for each test compound. EC50 values were then calculated, which represent the amount of compound required to decrease the level of detected luciferase activity by 50%, or more specifically, to reduce the ability of the genetically linked HCV replicon RNA to replicate.

| SMILES | EC50 [nM] |
| --- | --- |
| COC(=O)N[C@H](C(=O)N1CCC[C@H]1c1nc2cc(-c3ccc(-c4ccc5nc([C@@H]6CCCN6C(=O)[C@@H](NC(=O)OC)C(C)C)[nH]c5c4)nn3)ccc2[nH]1)C(C)C [Compound 1] | 0.13 |
| COC(=O)N[C@H](C(=O)N1CCC[C@H]1c1nc2cc(-c3ncc(-c4ccc5nc([C@@H]6CCCN6C(=O)[C@@H](NC(=O)OC)[C@@H](C)OC)[nH]c5c4)cn3)ccc2[nH]1)[C@@H](C)OC [Compound 3] | 0.13 |
| COC(=O)N[C@H](C(=O)N1CCC[C@H]1c1nc2cc(-c3ncc(-c4ccc5nc([C@@H]6CCCN6C(=O)[C@@H](NC(=O)OC)C(C)C)[nH]c5c4)cn3)ccc2[nH]1)C(C)C [Compound 4] | 0.03 |
| COC(=O)N[C@@H](C(=O)N1CCC[C@H]1c1nc2cc(-c3ncc(-c4ccc5nc([C@@H]6CCCN6C(=O)[C@H](NC(=O)OC)c6ccccc6)[nH]c5c4)cn3)ccc2[nH]1)c1ccccc1 [Compound 5] | < 0.015 |
| COC(=O)N[C@@H](C(=O)N1CCC[C@H]1c1nc2cc(-c3ccc(-c4ccc5nc([C@@H]6CCCN6C(=O)[C@H](NC(=O)OC)c6ccccc6)[nH]c5c4)nn3)ccc2[nH]1)c1ccccc1 [Compound 6] | 0.045 |
| COC(=O)N[C@H](C(=O)N1CCC[C@H]1c1nc2cc(-c3ncc(-c4ccc5nc([C@@H]6CCCN6C(=O)[C@@H](NC(=O)OC)C6CC6)[nH]c5c4)cn3)ccc2[nH]1)C1CC1 [Compound 7] | 0.059 |
| COC(=O)N[C@H](C(=O)N1CCC[C@H]1c1nc2ccc(-c3ccc(-c4ccc5nc([C@@H]6CCCN6C(=O)[C@@H](NC(=O)OC)[C@@H](C)OC)[nH]c5c4)nc3)cc2[nH]1)[C@@H](C)OC [Compound 9] | 0.31 |
